From ChEMBL document CHEMBL2029321, “Identification of chalcones as potent and selective PDE5A1 inhibitors” (Bioorg Med Chem Lett, 2012)
pIC50: −log10 of the molar value.

How the values were obtained:
[1] = target: cGMP-specific 3',5'-cyclic phosphodiesterase (Homo sapiens) (UniProt O76074); assay: Inhibition of PDE5A1 at 10 ug/mL
[2] = Inhibition of rabbit corpus cavernosum PDE6; design: species or system Oryctolagus cuniculus
Phosphodiesterase 4 = Phosphodiesterase 4 (Homo sapiens, UniProt P27815+Q08499+Q07343+Q08493); assay: Inhibition of human neutrophil PDE4; type: protein assay
[3] = target: cGMP-specific 3',5'-cyclic phosphodiesterase (Bos taurus, UniProt Q28156); assay: Inhibition of bovine platelet PDE5

Structure (SMILES)	inhibition [1] [%]	pIC50 [2]	IC50 (Phosphodiesterase 4) [µM]	pIC50 [3]
COc1ccc(OC)c(/C=C/C(=O)c2cc(OC)c(OC)cc2CCNC(C)=O)c1	47.4			
COc1ccc(/C=C/C(=O)c2cc(OC)c(OC)cc2CCNC(C)=O)c(OC)c1	45.5			
COc1ccc(/C=C/C(=O)c2c3c(c(OC)c4c2OCO4)CN(C)CC3)cc1	31.8			
COc1c2c(c(C(=O)/C=C/c3ccc(Cl)cc3Cl)c3c1OCO3)CCN(C)C2	8.17			
COc1ccc(OC)c(/C=C/C(=O)c2ccc(SC)cc2)c1	26.6			
COc1ccc(/C=C/C(=O)c2c(OCc3ccccc3)cc(OC)c(OC)c2OC)cc1OC	77.7	< 5.00	2.3	5.23
COc1ccc(OC)c(/C=C/C(=O)c2ccc(OC)cc2OC)c1	58.7	< 5.00	4.9	5.22
COc1ccc(C(=O)/C=C/c2ccc(OC)c(OC)c2)c(O)c1	23.8			
COc1ccc(/C=C/C(=O)c2c3c(c(OC)c4c2OCO4)CN(C)CC3)c(OC)c1OC	37.1			
COc1ccc(OC)c(C(=O)/C=C/c2ccc(OC)c(OC)c2)c1	66.1	< 5.00	8.2	5.15
COc1cccc(/C=C/C(=O)c2c3c(c(OC)c4c2OCO4)CN(C)CC3)c1OC	43.9			
COc1ccc(OC)c(/C=C/C(=O)c2c3c(c(OC)c4c2OCO4)CN(C)CC3)c1	45.5			
COc1ccc(OC)c(/C=C/C(=O)c2ccc(OC)c(OC)c2)c1	47.3			
COc1ccc(OC)c(/C=C/C(=O)c2cc(OC)c(C)cc2OC)c1	20.2			
COc1ccc(/C=C/C(=O)c2cc(OC)ccc2OC)cc1	25.6			
CCCc1nn(C)c2c(=O)[nH]c(-c3cc(S(=O)(=O)N4CCN(C)CC4)ccc3OCC)nc12		7.00		
COC(=O)C[N+]1(C)CCc2c(c(OC)c3c(c2C(=O)/C=C/c2ccc(OC)cc2OC)OCO3)C1 (configuration not stated)	18.3			
COc1ccc(C(=O)/C=C/c2cc(Cl)ccc2Cl)c(OC)c1	39.5			
COC(=O)C[N+]1(C)CCc2c(cc3c(c2C(=O)/C=C/c2cc(OC)ccc2OC)OCO3)C1 (configuration not stated)	7.2			

Continued, values first:

inhibition [1] [%]	pIC50 [2]	IC50 (Phosphodiesterase 4) [µM]	pIC50 [3]	Structure (SMILES)
24.9				COc1ccc(OC)c(C(=O)/C=C/c2cc(OC)c(C)cc2OC)c1
	< 5.00			COc1ccc(C2CNC(=O)C2)cc1OC1CCCC1 (configuration not stated) [ROLIPRAM]
46.7				COc1ccc(C(=O)/C=C/c2cccc(OC)c2OC)c(OC)c1
65.9	< 5.00	> 10	5.74	COc1ccc(C(=O)/C=C/c2cc(OC)c(OC)cc2OC)c(OC)c1
	6.40			CCCOc1ccccc1-c1nc2[nH]nnc2c(=O)[nH]1 [ZAPRINAST]
3.5				COc1ccc(/C=C/C(=O)c2cc(Cl)ccc2OC)cc1OC
8.1				COc1ccc(OC)c(/C=C/C(=O)c2ccc(Cl)cc2)c1
35.1				COc1ccc(/C=C/C(=O)c2c3c(c(OC)c4c2OCO4)CN(C)CC3)c(OC)c1
35.7				COc1ccc(/C=C/C(=O)c2c(O)cc(OC)c(OC)c2OC)c(OC)c1
19.9				COc1ccccc1/C=C/C(=O)c1cc(OC)c(OC)cc1CCNC(C)=O
64.8	< 5.00	> 10	5.21	COc1cccc(/C=C/C(=O)c2c3c(c(OC)c4c2OCO4)CN(C)CC3)c1
43.1				COc1ccc(C(=O)/C=C/c2ccccc2OC)c(OC)c1
27.7				COc1cc(CCNC(C)=O)c(C(=O)/C=C/c2cccc(OC)c2OC)cc1OC
